# Measured values from ChEMBL document CHEMBL1201862, “PubChem BioAssay data set” (2004).
#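 The compound was tested at five concentrations on cells cultured in 96-well plates, with a 48-hour exposure period. GI50: concentration for 50% inhibition of growth.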 The source made the active and inactive calls. Rule as the data show it: active = GI50 up to about 1.1 µM and inactive = higher.
# What was measured:
# Experiment in all cases: NCI anticancer screen, dose series, 48 h
# KM12 = tested on: KM12
# HCC 2998 = tested on: HCC 2998
# NCI-H460 = tested on: NCI-H460
# UO-31 = tested on: UO-31
# OVCAR-3 = tested on: OVCAR-3
# CCRF-CEM = tested on: CCRF-CEM
# LOX IMVI = tested on: LOX IMVI
# UACC-62 = tested on: UACC-62
# OVCAR-8 = tested on: OVCAR-8
# RXF 393 = tested on: RXF 393
# OVCAR-4 = tested on: OVCAR-4
# NCI-H23 = tested on: NCI-H23
# U-251 = tested on: U-251
# CAKI-1 = tested on: CAKI-1
# MOLT-4 = tested on: MOLT-4
# MCF7 = tested on: MCF7
# TK-10 = tested on: TK-10
# ACHN = tested on: ACHN
Compound,GI50 (KM12),GI50 (HCC 2998),GI50 (NCI-H460),GI50 (UO-31),GI50 (OVCAR-3),GI50 (CCRF-CEM),GI50 (LOX IMVI),GI50 (UACC-62),GI50 (OVCAR-8),GI50 (RXF 393),GI50 (OVCAR-4),GI50 (NCI-H23),GI50 (U-251),GI50 (CAKI-1),GI50 (MOLT-4),GI50 (MCF7),GI50 (TK-10),GI50 (ACHN)
CCN(CC)CCCC(C)Nc1c2ccc(Cl)cc2nc2cc(Cl)ccc12 (stereo unspecified),3.56 µM (inactive),2.16 µM (inactive),3.31 µM (inactive),3.57 µM (inactive),5.71 µM (inactive),1.76 µM (inactive),2.64 µM (inactive),6.89 µM (inactive),4.55 µM (inactive),3.23 µM (inactive),3.37 µM (inactive),6.62 µM (inactive),5.09 µM (inactive),3.22 µM (inactive),1.98 µM (inactive),3.13 µM (inactive),,
CCOC(=O)C1=C(O)C(=O)c2ccccc2C1=O,> 100 µM (inactive),> 100 µM (inactive),> 100 µM (inactive),> 100 µM (inactive),> 100 µM (inactive),> 100 µM (inactive),85.1 µM (inactive),48 µM (inactive),> 100 µM (inactive),> 100 µM (inactive),> 100 µM (inactive),44.3 µM (inactive),> 100 µM (inactive),> 100 µM (inactive),> 100 µM (inactive),,> 100 µM (inactive),> 100 µM (inactive)
Cc1c(C)c2ccc(OC(C)C(=O)O)cc2oc1=O (stereo unspecified),> 100 µM (inactive),> 100 µM (inactive),> 100 µM (inactive),> 100 µM (inactive),> 100 µM (inactive),> 100 µM (inactive),> 100 µM (inactive),> 100 µM (inactive),> 100 µM (inactive),> 100 µM (inactive),> 100 µM (inactive),> 100 µM (inactive),> 100 µM (inactive),> 100 µM (inactive),> 100 µM (inactive),,> 100 µM (inactive),> 100 µM (inactive)
Clc1cccc(N2CCN(CCCN3CCc4c([nH]c5ccccc45)C3c3cccnc3)CC2)c1 (stereo unspecified),> 10 µM (inactive),,6.22 µM (inactive),5.15 µM (inactive),2.67 µM (inactive),6.76 µM (inactive),8.17 µM (inactive),> 10 µM (inactive),10.8 µM (inactive),1.58 µM (inactive),6.98 µM (inactive),10.7 µM (inactive),10.7 µM (inactive),9.68 µM (inactive),3.88 µM (inactive),,> 10 µM (inactive),12.4 µM (inactive)
O=C1C(c2ccccc2)=C(c2ccccc2)C(c2ccccc2)/C1=C1\C(=O)C(c2ccccc2)=C(c2ccccc2)C1c1ccccc1 (stereo unspecified),> 100 µM (inactive),> 100 µM (inactive),> 100 µM (inactive),> 100 µM (inactive),> 100 µM (inactive),,> 100 µM (inactive),> 100 µM (inactive),> 100 µM (inactive),> 100 µM (inactive),> 100 µM (inactive),> 100 µM (inactive),> 100 µM (inactive),> 100 µM (inactive),> 100 µM (inactive),,> 100 µM (inactive),> 100 µM (inactive)
COc1cccc2c1C(=O)c1c(O)c3c(c(O)c1C2=O)C[C@@](O)(C(=O)CN1CCOCC1)C[C@@H]3OC1CC(N)C(O)C(C)O1 (stereo partly specified),4.23 µM (inactive),5.73 µM (inactive),0.446 µM (active),19 µM (inactive),0.000912 µM (active),,2.09 µM (inactive),3.58 µM (inactive),4.47 µM (inactive),6.41 µM (inactive),9.53 µM (inactive),5.3 µM (inactive),2.12 µM (inactive),,,0.938 µM (active),,
Clc1ccc(-c2c(C3=NCCCN3)nnn2-c2ccccc2)cc1,> 100 µM (inactive),> 100 µM (inactive),33.6 µM (inactive),71.9 µM (inactive),> 100 µM (inactive),35.9 µM (inactive),24.9 µM (inactive),> 100 µM (inactive),> 100 µM (inactive),> 100 µM (inactive),> 100 µM (inactive),> 100 µM (inactive),> 100 µM (inactive),> 100 µM (inactive),> 100 µM (inactive),,> 100 µM (inactive),> 100 µM (inactive)
Cc1ccc(C(=O)N2c3ccccc3N(C)n3cccc3C2CC(=O)O)cc1 (stereo unspecified),> 100 µM (inactive),> 100 µM (inactive),> 100 µM (inactive),> 100 µM (inactive),> 100 µM (inactive),> 100 µM (inactive),> 100 µM (inactive),> 100 µM (inactive),> 100 µM (inactive),> 100 µM (inactive),> 100 µM (inactive),> 100 µM (inactive),,> 100 µM (inactive),> 100 µM (inactive),,> 100 µM (inactive),> 100 µM (inactive)
CC(=O)Nc1ccc(SC#N)c2c(NC(C)=O)cccc12,> 66.8 µM (inactive),> 100 µM (inactive),> 100 µM (inactive),> 95.5 µM (inactive),89.9 µM (inactive),30.3 µM (inactive),56.4 µM (inactive),78.3 µM (inactive),> 100 µM (inactive),> 100 µM (inactive),> 92.9 µM (inactive),> 100 µM (inactive),> 100 µM (inactive),> 65 µM (inactive),28.7 µM (inactive),,> 100 µM (inactive),> 100 µM (inactive)
C[C@]12CCC(=O)C(O)=C1CCC2=O,> 100 µM (inactive),> 100 µM (inactive),> 100 µM (inactive),> 100 µM (inactive),> 100 µM (inactive),> 100 µM (inactive),> 100 µM (inactive),> 100 µM (inactive),> 100 µM (inactive),> 100 µM (inactive),> 100 µM (inactive),,> 100 µM (inactive),> 100 µM (inactive),> 100 µM (inactive),,> 100 µM (inactive),> 100 µM (inactive)
CCOC(=O)C1(Br)S(=O)(=O)OCCOS1(=O)=O,,> 100 µM (inactive),> 100 µM (inactive),> 100 µM (inactive),> 100 µM (inactive),> 100 µM (inactive),> 100 µM (inactive),> 100 µM (inactive),> 100 µM (inactive),> 100 µM (inactive),> 100 µM (inactive),> 100 µM (inactive),> 100 µM (inactive),,> 100 µM (inactive),,> 100 µM (inactive),> 100 µM (inactive)
O=C1C[S+]([O-])c2ccccc2N1 (stereo unspecified),> 100 µM (inactive),> 100 µM (inactive),66.1 µM (inactive),> 100 µM (inactive),> 100 µM (inactive),> 100 µM (inactive),52.6 µM (inactive),> 100 µM (inactive),> 100 µM (inactive),> 100 µM (inactive),> 100 µM (inactive),> 100 µM (inactive),> 100 µM (inactive),> 100 µM (inactive),> 100 µM (inactive),,> 100 µM (inactive),> 100 µM (inactive)
CCOC(=N)CC(=O)Nc1cccc(C)c1C,> 100 µM (inactive),> 100 µM (inactive),> 100 µM (inactive),> 100 µM (inactive),> 100 µM (inactive),> 100 µM (inactive),> 100 µM (inactive),> 100 µM (inactive),> 100 µM (inactive),> 100 µM (inactive),> 100 µM (inactive),> 100 µM (inactive),> 100 µM (inactive),> 100 µM (inactive),2.77 µM (inactive),,> 100 µM (inactive),> 100 µM (inactive)
Cc1cccc(C)c1N1C(=O)C(=O)C(c2nc3ccccc3s2)/C(=N/NC(=O)c2ccccc2O)C1=O (stereo unspecified),35.2 µM (inactive),24.6 µM (inactive),17.7 µM (inactive),4.78 µM (inactive),18.7 µM (inactive),4.8 µM (inactive),24.4 µM (inactive),2.08 µM (inactive),21 µM (inactive),3.09 µM (inactive),16.8 µM (inactive),7.38 µM (inactive),20.6 µM (inactive),3.07 µM (inactive),8.89 µM (inactive),,25.1 µM (inactive),6.65 µM (inactive)
C=C1C(=O)[C@@]23CC[C@H]4[C@@](C)(CCC[C@@]4(C)C(=O)OC)[C@@H]2CC[C@]1(O)C3,2.39 µM (inactive),2.82 µM (inactive),3.58 µM (inactive),2.32 µM (inactive),1.84 µM (inactive),0.2 µM (active),0.953 µM (active),1.6 µM (inactive),1.47 µM (inactive),,1.89 µM (inactive),1.57 µM (inactive),3.38 µM (inactive),1.55 µM (inactive),0.271 µM (active),2.12 µM (inactive),,
CC1CCCC2(O1)OC1CC(=O)OC1C1=C2C(=O)c2ccccc2C1=O (stereo unspecified),12.1 µM (inactive),2.37 µM (inactive),25.9 µM (inactive),2.13 µM (inactive),2.72 µM (inactive),1.57 µM (inactive),2.64 µM (inactive),2.25 µM (inactive),2.51 µM (inactive),2.13 µM (inactive),1.86 µM (inactive),5.13 µM (inactive),18.2 µM (inactive),2.84 µM (inactive),1.58 µM (inactive),,9.12 µM (inactive),4.39 µM (inactive)
CCCCCCCCCCCCCCCC(=O)N[C@H]1CCc2cc(OC)c(OC)c(OC)c2-c2ccc(SC)c(=O)cc21,0.29 µM (active),0.297 µM (active),0.376 µM (active),3.52 µM (inactive),0.225 µM (active),0.356 µM (active),2.45 µM (inactive),0.601 µM (active),0.557 µM (active),3.02 µM (inactive),3.24 µM (inactive),0.29 µM (active),0.294 µM (active),21.1 µM (inactive),1.23 µM (inactive),,0.492 µM (active),2.2 µM (inactive)
